Measured values published in ChEMBL document CHEMBL3352598, “Synthesis, pharmacological evaluation and molecular modeling studies of triazole containing dopamine D3 receptor ligands” (Bioorg Med Chem Lett, 2015).

Key:
D(2) dopamine receptor = D(2) dopamine receptor (Homo sapiens, UniProt P14416); experiment: biochemical; assay type: cell-based, HEK293
D(3) dopamine receptor = D(3) dopamine receptor (Homo sapiens, UniProt P35462); experiment: biochemical; assay type: cell-based, HEK293
[1] = target: T1, 5-hydroxytryptamine receptor 1A (Homo sapiens, UniProt P08908); experiment: Displacement of [3H]8-OH-DPAT from human 5HT1A receptor after 60 mins by filtration binding assay
T1 sequence (P08908 whole entry): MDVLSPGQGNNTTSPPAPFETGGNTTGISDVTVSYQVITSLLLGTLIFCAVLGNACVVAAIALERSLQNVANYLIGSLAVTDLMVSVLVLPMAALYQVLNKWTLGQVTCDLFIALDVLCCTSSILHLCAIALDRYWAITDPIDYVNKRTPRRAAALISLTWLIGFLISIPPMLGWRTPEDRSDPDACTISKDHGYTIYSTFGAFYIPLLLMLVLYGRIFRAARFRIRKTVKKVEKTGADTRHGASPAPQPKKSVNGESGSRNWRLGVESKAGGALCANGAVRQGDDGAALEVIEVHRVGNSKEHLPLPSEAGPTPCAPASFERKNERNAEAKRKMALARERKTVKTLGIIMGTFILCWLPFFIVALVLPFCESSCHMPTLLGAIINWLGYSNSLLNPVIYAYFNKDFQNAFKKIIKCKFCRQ

Homo sapiens = species on record: Homo sapiens; experiment: Selectivity index, ratio of Ki for D4 receptor to Ki for human D3 receptor
D(4) dopamine receptor = target: T2, D(4) dopamine receptor (Homo sapiens, UniProt P21917); experiment: Displacement of [125I]-IABN from human D4 receptor expressed in HEK293 cell membranes after 60 mins by filtration binding assay
T2 sequence (P21917 whole entry): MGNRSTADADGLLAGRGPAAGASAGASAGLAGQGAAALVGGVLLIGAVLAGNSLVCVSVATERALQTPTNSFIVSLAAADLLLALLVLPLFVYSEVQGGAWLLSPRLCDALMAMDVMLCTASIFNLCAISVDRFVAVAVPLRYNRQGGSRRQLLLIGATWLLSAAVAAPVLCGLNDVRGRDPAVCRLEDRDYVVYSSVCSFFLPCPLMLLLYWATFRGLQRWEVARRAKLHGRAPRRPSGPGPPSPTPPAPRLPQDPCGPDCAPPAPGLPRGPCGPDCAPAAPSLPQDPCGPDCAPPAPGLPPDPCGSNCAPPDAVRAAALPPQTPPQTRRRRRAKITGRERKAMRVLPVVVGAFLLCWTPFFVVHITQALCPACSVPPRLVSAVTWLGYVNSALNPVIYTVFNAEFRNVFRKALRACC

Chain of D(2) dopamine receptor (P14416 whole entry): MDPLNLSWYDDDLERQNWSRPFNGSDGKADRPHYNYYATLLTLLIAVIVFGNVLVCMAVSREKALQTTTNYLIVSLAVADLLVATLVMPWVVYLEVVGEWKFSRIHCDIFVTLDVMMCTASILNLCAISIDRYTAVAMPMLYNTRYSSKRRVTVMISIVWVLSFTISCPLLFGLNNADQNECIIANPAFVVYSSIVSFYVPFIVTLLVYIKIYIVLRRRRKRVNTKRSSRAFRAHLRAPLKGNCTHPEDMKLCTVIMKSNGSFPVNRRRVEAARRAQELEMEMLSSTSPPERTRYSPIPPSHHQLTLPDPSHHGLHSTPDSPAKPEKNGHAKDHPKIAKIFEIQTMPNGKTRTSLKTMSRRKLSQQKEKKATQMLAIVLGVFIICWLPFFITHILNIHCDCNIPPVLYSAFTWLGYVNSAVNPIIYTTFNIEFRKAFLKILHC
Chain of D(3) dopamine receptor (P35462 whole entry): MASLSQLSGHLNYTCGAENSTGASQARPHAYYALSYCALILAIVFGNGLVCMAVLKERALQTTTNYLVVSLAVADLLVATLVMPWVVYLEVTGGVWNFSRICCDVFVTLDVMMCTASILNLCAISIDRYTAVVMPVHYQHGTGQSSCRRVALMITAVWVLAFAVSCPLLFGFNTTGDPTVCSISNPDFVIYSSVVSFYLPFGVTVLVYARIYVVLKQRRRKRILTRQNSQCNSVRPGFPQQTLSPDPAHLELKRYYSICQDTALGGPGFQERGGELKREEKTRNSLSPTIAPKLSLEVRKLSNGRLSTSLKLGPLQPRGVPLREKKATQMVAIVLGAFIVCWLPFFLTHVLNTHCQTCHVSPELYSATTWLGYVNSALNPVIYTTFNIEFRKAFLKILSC

Row | Ki (D(2) dopamine receptor) | Ki (D(3) dopamine receptor) | Ki [1] | Ratio Ki (Homo sapiens) | Ki (D(4) dopamine receptor) | Structure (SMILES)
1 | 0.0627 µM | 0.0211 µM | – | – | – | COc1ccccc1N1CCN(CCCCCc2cn(-c3ccccc3OC)nn2)CC1
2 | 0.272 µM | 0.0931 µM | – | – | – | COc1ccccc1N1CCN(CCCc2cn(-c3ccccc3OC)nn2)CC1
3 | 0.0793 µM | 0.0363 µM | – | – | – | COc1ccccc1N1CCN(CCCc2cn(-c3cccc4cnccc34)nn2)CC1
4 | 0.0377 µM | 0.0021 µM | 0.0053 µM | 95 | 0.2 µM | COc1ccccc1N1CCN(CCCCc2cn(-c3ccc(SC)cc3)nn2)CC1
5 | 0.0266 µM | 0.0023 µM | 0.0039 µM | 99 | 0.227 µM | COc1ccccc1N1CCN(CCCCCc2cn(-c3ccc(SC)cc3)nn2)CC1
6 | 0.0441 µM | 0.0096 µM | – | – | – | COc1ccccc1N1CCN(CCCc2cn(-c3ccc(SC)cc3)nn2)CC1
7 | 0.109 µM | 0.0063 µM | 0.153 µM | 26 | 0.163 µM | COc1ccccc1N1CCN(CCCCCc2cn(-c3ccc(-c4ccsc4)cc3)nn2)CC1
8 | 0.0194 µM | 0.0031 µM | – | – | – | COc1ccccc1N1CCN(CCCCCc2cn(-c3ccccc3)nn2)CC1
9 | 0.139 µM | 0.0254 µM | – | – | – | COc1ccccc1N1CCN(CCCCc2cn(-c3ccccc3OC)nn2)CC1
10 | 0.0626 µM | 0.0067 µM | – | – | – | COc1ccccc1N1CCN(CCCCCc2cn(-c3ccc(N(C)C)cc3)nn2)CC1
11 | – | – | 0.0075 µM | 1120 | – | COc1ccccc1N1CCN(CCCCNC(=O)c2ccc(N(C)C)cc2)CC1
12 | 0.0735 µM | 0.0265 µM | – | – | – | COc1ccccc1N1CCN(CCCc2cn(-c3ccc(F)cc3)nn2)CC1
13 | 0.171 µM | 0.0139 µM | 0.0094 µM | 55 | 0.758 µM | COc1ccccc1N1CCN(CCCCc2cn(-c3ccc(N(C)C)cc3)nn2)CC1
14 | 0.0943 µM | 0.0082 µM | 0.0013 µM | 48 | 0.395 µM | COc1ccccc1N1CCN(CCCCc2cn(-c3ccc(-c4ccsc4)cc3)nn2)CC1
15 | 0.0237 µM | 0.0032 µM | – | – | – | COc1ccccc1N1CCN(CCCCCc2cn(-c3ccc(F)cc3)nn2)CC1
16 | 0.0467 µM | 0.0065 µM | – | – | – | COc1ccccc1N1CCN(CCCCc2cn(-c3ccc(F)cc3)nn2)CC1
17 | 0.162 µM | 0.0296 µM | – | – | – | COc1ccccc1N1CCN(CCCc2cn(-c3ccc(N(C)C)cc3)nn2)CC1
18 | 0.0094 µM | 0.0029 µM | – | – | – | COc1ccccc1N1CCN(CCCCc2cn(-c3ccccc3O)nn2)CC1
19 | 0.0177 µM | 0.0018 µM | 0.0058 µM | 103 | 0.186 µM | COc1ccccc1N1CCN(CCCCCc2cn(-c3cccc4cnccc34)nn2)CC1
20 | 0.0423 µM | 0.0037 µM | 0.006 µM | 237 | 0.875 µM | COc1ccccc1N1CCN(CCCCc2cn(-c3cccc4cnccc34)nn2)CC1
21 | 0.0309 µM | 0.0047 µM | – | – | – | COc1ccccc1N1CCN(CCCCc2cn(-c3ccccc3)nn2)CC1
22 | 0.0128 µM | 0.0068 µM | – | – | – | COc1ccccc1N1CCN(CCCc2cn(-c3ccccc3O)nn2)CC1
23 | 0.158 µM | 0.0089 µM | 0.0074 µM | 10 | 0.09 µM | COc1ccccc1N1CCN(CCCc2cn(-c3ccc(-c4ccsc4)cc3)nn2)CC1
24 | 0.064 µM | 0.0222 µM | – | – | – | COc1ccccc1N1CCN(CCCc2cn(-c3ccccc3)nn2)CC1
